# Laboratory results: patent publication US20260207585A1, “METHODS AND COMPOSITIONS FOR THE TREATMENT OF PARKINSON'S DISEASE, HUNTINGTON'S DISEASE, AMYOTROPHIC LATERAL SCLEROSIS, AND LEARNING DISORDERS” (Cedars-Sinai Medical Center, priority 2022, published 2026)
# Read-outs that look alike come from different tables or passages of the source.
# Experiments:
# dendritic spines = test: Golgi-Cox staining of brain, dendritic spine quantification; assay type: in vivo, mice
# Text: The brain of 18-month old mice was stained with the Golgi-Cox method to detect the cytoarchitecture and morphology of neurons. FIG. 1A depicts representative images of the cingulate cortex (cc) of mice administered DMSO or ETP69. FIG. 1B depicts a representative hippocampus. FIG. 1C depicts a representative neuron from a DMSO treated and ETP69 treated hippocampus. FIG. 1D is a schematic of the quantification of neuronal spines.
# The brains were stained with the Golgi-Cox method to detect the cytoarchitecture and morphology of neurons. Representative images are shown of mice treated with DMSO (FIG. 10A-10C) and ETP69 (FIG. 10D-10F). The number of dendritic spines are quantified. […] Further, ETP69 administration reduced epigenetic H3K9me3 repression mark in cell-specific manners. H3K9 expression was reduced in neurons (FIGS. 11A-11B), astrocytes (FIGS. 11C-11D), and microglia macrophages (FIGS. 11E-11F).
# Loss of synapses and dendritic spine abnormalities are associated with cognitive decline. To analyze these features in old mice administered ETP69, Golgi-Cox neuronal staining and synaptic marker staining was performed in cerebral cortices and hippocampi. Dendritic spines were classified as thin (filopodia-like and long-thin), stubby, or mushroom spines according to their size and shape, and quantified the spine density from high-magnification photographs.
# NSD1 = NSD1 (Homo sapiens, UniProt Q96L73); test: Methyltransferase inhibition panel: NSD1; assay type: biochemical
# Chain of NSD1 (Q96L73 whole entry): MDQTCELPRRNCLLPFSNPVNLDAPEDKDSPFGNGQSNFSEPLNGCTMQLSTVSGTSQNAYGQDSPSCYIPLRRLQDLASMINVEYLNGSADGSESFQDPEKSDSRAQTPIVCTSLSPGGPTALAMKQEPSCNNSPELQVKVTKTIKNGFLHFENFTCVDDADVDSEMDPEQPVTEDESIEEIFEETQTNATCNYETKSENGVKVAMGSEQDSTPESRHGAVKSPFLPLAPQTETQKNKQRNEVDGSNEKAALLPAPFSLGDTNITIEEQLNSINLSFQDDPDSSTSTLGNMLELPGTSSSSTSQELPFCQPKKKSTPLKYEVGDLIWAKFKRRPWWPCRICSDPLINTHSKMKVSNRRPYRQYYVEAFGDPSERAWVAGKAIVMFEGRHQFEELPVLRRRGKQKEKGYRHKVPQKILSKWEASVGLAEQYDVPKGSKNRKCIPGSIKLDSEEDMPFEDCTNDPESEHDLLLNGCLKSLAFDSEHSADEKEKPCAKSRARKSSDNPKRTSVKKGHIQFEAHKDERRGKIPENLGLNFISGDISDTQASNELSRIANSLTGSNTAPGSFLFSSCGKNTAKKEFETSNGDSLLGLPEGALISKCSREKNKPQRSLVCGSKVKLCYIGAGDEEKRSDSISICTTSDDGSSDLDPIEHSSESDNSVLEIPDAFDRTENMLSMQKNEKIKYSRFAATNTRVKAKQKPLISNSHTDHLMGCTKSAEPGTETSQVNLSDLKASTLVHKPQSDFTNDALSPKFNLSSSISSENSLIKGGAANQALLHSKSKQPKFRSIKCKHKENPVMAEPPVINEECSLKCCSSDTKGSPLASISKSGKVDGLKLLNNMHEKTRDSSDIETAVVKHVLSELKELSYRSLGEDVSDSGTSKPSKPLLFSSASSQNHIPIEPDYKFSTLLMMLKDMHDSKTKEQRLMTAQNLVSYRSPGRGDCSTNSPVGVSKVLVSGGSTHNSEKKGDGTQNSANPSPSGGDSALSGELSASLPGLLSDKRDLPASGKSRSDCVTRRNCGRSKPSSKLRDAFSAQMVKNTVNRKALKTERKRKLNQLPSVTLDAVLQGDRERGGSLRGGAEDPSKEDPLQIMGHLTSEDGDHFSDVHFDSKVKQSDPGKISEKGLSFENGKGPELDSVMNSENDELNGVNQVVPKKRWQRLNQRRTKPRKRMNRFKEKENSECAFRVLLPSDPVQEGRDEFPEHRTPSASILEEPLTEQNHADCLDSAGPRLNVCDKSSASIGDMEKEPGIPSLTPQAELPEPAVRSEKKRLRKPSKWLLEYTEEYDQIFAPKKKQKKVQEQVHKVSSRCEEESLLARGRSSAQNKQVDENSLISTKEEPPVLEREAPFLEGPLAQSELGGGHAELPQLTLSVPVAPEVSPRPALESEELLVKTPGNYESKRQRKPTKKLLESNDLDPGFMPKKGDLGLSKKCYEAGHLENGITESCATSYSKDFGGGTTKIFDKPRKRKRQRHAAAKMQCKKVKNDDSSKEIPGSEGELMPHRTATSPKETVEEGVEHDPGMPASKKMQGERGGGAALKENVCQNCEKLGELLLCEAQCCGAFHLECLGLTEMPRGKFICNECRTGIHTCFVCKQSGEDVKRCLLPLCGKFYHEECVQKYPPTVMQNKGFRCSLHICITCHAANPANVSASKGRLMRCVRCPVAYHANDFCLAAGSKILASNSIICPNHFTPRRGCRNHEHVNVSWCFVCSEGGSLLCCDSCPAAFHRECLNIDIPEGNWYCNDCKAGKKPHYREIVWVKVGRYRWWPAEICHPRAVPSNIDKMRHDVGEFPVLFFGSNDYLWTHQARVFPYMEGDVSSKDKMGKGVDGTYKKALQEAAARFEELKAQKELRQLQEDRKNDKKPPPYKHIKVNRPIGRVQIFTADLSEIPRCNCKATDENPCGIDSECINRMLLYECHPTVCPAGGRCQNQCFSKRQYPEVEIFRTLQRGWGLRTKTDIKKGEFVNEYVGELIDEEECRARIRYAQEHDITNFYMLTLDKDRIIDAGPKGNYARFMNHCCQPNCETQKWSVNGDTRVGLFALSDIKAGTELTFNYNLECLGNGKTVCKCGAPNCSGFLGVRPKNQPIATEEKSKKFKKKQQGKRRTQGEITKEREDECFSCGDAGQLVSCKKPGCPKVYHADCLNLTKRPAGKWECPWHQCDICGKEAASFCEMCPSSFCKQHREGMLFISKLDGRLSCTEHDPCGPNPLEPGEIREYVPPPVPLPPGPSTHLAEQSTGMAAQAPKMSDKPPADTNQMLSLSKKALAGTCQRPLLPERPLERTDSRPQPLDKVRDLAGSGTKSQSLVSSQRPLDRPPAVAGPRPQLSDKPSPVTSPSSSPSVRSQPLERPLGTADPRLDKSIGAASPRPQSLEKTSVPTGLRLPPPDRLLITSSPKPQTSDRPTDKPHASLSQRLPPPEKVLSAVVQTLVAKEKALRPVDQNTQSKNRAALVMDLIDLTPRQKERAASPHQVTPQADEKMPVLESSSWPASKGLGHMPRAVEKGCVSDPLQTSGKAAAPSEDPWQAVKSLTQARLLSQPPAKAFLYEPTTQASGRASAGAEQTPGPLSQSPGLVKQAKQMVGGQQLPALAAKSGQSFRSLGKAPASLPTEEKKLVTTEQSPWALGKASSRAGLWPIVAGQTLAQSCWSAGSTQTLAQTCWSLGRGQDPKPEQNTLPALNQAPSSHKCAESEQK
# Procedure: (§1) The ability of ETP69 to inhibit methyltransferases was tested.
# BDNF and VGF pathways = test: Gene expression in treated mice (BDNF and VGF pathways); assay type: in vivo; settings: mice treated with ETP69 vs DMSO
# Procedure: Gene expression was measured in mice treated with ETP69 and DMSO. As depicted in FIG. 3, genes in the BDNF and VGF pathways were activated. These pathways are consistent with protective neurotrophic support. This pathway correlates with reduced H3K9me3 and improved cognition. FIG. 4A depicts genes in the BDNF pathway inhibited (left) and activated (right) by ETP69. The inactivated genes are quantified in FIGS. 4B-4F. The activated genes are quantified in FIGS. 4G-4M.
# MLL4 Complex = MLL4 Complex (Homo sapiens, UniProt Q9UMN6); test: Methyltransferase inhibition panel: MLL4 Complex; assay type: biochemical
# Chain of MLL4 Complex (Q9UMN6 2490-2715): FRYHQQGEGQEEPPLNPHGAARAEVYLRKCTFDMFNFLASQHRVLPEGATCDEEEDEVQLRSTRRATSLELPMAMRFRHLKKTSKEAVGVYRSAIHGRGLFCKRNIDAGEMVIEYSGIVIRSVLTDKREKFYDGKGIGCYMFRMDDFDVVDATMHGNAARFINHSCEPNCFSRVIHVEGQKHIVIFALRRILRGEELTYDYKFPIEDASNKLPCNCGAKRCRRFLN
# Chain of MLL4 Complex (Q9C005 whole entry, further chain): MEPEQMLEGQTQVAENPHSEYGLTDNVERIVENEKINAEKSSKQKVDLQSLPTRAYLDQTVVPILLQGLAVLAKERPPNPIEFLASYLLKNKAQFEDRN
# Chain of MLL4 Complex (Q9UBL3 whole entry, further chain): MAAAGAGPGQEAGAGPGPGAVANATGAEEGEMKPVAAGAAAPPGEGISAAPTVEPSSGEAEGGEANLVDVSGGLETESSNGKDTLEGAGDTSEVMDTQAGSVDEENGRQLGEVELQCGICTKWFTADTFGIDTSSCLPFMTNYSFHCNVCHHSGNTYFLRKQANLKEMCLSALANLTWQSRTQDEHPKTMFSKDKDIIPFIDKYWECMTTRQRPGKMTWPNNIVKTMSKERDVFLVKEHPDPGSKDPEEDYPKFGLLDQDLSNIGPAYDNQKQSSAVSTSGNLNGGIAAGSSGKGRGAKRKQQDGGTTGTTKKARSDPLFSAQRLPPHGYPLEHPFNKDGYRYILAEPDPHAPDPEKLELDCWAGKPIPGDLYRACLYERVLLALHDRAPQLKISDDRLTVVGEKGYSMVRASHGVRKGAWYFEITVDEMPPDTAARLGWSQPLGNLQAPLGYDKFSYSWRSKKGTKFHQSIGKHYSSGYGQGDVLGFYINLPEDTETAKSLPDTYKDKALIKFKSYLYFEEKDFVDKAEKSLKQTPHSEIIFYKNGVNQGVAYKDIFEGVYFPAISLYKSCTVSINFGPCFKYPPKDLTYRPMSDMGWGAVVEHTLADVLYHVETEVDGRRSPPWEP
# Chain of MLL4 Complex (Q15291 whole entry, further chain): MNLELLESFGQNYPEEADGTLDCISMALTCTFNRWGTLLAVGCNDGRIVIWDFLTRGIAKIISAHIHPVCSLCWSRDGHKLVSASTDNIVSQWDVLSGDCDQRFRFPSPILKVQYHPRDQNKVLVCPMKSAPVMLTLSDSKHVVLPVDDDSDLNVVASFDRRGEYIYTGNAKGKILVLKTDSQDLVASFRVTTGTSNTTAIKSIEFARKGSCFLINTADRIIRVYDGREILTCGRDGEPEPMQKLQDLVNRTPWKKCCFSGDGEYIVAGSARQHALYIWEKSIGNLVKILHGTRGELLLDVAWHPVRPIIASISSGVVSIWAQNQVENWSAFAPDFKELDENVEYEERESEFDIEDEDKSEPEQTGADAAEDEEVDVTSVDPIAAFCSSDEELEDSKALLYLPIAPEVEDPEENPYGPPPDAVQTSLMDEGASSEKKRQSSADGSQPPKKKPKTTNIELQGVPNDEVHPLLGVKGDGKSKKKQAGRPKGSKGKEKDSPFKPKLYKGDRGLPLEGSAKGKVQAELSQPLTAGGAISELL
# Procedure: as §1
# SETD2 = SETD2 (Homo sapiens, UniProt Q9BYW2); test: Methyltransferase inhibition panel: SETD2; assay type: biochemical
# Procedure: as §1
# NSD2 (E1099K) = target: T1, NSD2 (E1099K) (Homo sapiens, UniProt O96028, E1099K); test: Methyltransferase inhibition panel: NSD2 (E1099K); assay type: biochemical
# T1 sequence (O96028 1-1365 E1099K): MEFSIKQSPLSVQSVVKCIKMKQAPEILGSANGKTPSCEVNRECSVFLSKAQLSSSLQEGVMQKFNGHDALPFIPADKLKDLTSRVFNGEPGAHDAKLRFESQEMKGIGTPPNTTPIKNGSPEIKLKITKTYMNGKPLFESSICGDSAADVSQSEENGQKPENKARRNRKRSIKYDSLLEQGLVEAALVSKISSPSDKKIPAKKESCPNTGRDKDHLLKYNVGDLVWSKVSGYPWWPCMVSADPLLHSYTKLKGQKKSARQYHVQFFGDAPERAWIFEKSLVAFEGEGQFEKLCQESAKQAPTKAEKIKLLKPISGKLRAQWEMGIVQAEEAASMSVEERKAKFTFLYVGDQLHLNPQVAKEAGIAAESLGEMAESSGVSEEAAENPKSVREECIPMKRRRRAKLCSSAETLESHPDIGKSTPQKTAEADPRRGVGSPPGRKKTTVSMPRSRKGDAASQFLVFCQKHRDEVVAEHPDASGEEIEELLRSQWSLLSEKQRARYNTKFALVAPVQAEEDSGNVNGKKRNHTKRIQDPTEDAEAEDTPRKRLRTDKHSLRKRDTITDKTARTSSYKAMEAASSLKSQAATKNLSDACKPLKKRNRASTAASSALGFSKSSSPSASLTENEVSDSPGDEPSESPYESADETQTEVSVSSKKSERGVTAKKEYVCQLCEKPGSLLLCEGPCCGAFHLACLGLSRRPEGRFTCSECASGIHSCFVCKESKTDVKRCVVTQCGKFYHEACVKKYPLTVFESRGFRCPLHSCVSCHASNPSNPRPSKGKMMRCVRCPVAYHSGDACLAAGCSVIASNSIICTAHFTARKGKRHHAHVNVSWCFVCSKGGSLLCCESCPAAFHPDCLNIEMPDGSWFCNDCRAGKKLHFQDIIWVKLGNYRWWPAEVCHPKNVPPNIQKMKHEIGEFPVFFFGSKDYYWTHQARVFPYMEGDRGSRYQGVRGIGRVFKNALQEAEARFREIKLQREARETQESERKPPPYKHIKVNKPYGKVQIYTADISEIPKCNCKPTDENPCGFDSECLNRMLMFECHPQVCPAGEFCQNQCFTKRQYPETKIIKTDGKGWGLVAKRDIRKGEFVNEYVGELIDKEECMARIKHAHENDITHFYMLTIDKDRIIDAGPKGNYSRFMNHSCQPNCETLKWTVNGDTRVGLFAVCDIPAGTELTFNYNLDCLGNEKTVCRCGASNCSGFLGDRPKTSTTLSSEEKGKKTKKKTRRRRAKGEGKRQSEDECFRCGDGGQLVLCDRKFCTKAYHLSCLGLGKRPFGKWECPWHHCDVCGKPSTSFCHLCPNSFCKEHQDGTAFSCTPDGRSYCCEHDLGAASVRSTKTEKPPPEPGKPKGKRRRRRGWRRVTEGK
# Procedure: as §1
# 6E10 = 6E10 staining of brain sections; assay type: in vivo; settings: AD+ mice; 4 and 15 days
# Text: ETP69 administration reduced AD-related brain pathology (FIGS. 9A-9C). Brain sections were stained for H3K9me3, 6E10 and GFAP.
# [1] = 18-month old mice, cingulate cortex (cc) and hippocampus, vs DMSO
# [2] = old (18-month-old) mice, 10 mg/kg i.p.
# [3] = NT1721 20 μM, substrate Nucleosomes 0.05 mg/mL
# [4] = read-out: Enzyme % Activity (relative to DMSO controls) Data 1
# [5] = read-out: Enzyme % Activity (relative to DMSO controls) Data 2
structure (smiles),measurement,setting,value
"CN1C(=O)[C@@]23C[C@](C)(C#N)[C@H](c4ccc5c(c4)OCO5)N2C(=O)[C@]1(C)SS3 (racemic) [ETP69, Rac-(3S,6S,7S,8aS)-6-(benzo[d][1,3]dioxol-5-yl)-2,3,7-trimethyl-1,4-dioxohexahydro-6H-3,8a-epidithiopyrrolo[1,2-a]pyrazine-7-carbonitrile]",dendritic spines,dendritic spines; [1],increase
same,thin spines,dendritic spines; [1],increase
same,number of dendritic spines,"dendritic spines; Example 4 mice, cingulate cortex and hippocampus, vs DMSO",significantly increased
same,mushroom-to-total spine ratio,dendritic spines; [2],lower
same,thin-to-total spine ratio,dendritic spines; [2],higher
same,increase in the number of dendritic spines,"dendritic spines; old (18-month-old) wildtype and neurodegenerative mice, hippocampus and cerebral cortex, 10 mg/kg i.p., vs DMSO control",1.2 fold
same,Enzyme % Activity (relative to DMSO controls) Data 1,NSD1; [3],34.29%
same,Enzyme % Activity (relative to DMSO controls) Data 2,NSD1; [3],36.14%
same,inhibition relative to DMSO controls,NSD1; summary of Table 1,at least 7500
same,genes in the BDNF and VGF pathways,BDNF and VGF pathways,activated
same,remaining activity at 20 µM,MLL4 Complex; [4],1.32%
same,remaining activity at 20 µM,MLL4 Complex; [5],1.17%
same,inhibition relative to DMSO controls,MLL4 Complex; summary of Table 1,at least 7500
same,Enzyme % Activity (relative to DMSO controls) Data 1,SETD2; [3],20.95%
same,Enzyme % Activity (relative to DMSO controls) Data 2,SETD2; [3],22.89%
same,inhibition relative to DMSO controls,SETD2; summary of Table 1,at least 7500
same,remaining activity at 20 µM,NSD2 (E1099K); [4],32.3%
same,remaining activity at 20 µM,NSD2 (E1099K); [5],32.7%
same,inhibition relative to DMSO controls,NSD2 (E1099K); summary of Table 1,at least 7500
same,6E10,6E10,significant decrease
